Laboratory results from ChEMBL document CHEMBL4020745 (Bioorg Med Chem Lett, 2017).

What was measured:
Type in all cases: cell-based
[1] = target: T1, Peroxisome proliferator-activated receptor gamma (Homo sapiens, UniProt P37231); experiment: Transrepression activity at human PPARgamma expressed in HEK293 cells assessed as inhibition of TNFalpha induced NF-kappaB promoter activity pretreated for 4 hrs followed by TNFalpha stimulation after 3 hrs by luciferase reporter gene assay
T1 sequence (P37231 whole entry): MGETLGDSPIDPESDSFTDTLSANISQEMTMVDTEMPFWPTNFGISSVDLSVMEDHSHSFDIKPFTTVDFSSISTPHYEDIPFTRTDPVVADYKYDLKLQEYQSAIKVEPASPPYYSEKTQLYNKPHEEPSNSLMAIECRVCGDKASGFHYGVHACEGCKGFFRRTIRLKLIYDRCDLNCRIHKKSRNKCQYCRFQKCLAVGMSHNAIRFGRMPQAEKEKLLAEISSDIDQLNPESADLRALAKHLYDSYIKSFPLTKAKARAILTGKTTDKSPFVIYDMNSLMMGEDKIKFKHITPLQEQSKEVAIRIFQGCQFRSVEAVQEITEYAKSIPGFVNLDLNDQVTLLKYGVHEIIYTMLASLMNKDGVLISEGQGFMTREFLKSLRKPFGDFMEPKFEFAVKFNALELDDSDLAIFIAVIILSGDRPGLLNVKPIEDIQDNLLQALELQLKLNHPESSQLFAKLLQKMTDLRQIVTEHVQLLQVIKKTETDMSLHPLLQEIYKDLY

[2] = tested on: HEK293; experiment: Cytotoxicity against HEK293 cells harboring beta-galactosidase expression plasmid assessed as effect on beta-galactosidase activity; details: human
[3] = target: T1, Peroxisome proliferator-activated receptor gamma; experiment: Transactivation activity at Gal4 fused […] human PPARgamma LBD expressed in HEK293 cells after 24 hrs by luciferase reporter gene assay
[4] = Inhibition of TNFalpha induced NF-kappaB (unknown origin) activation expressed in PPARgamma deficient HEK293 cells pretreated for 4 hrs followed by TNFalpha stimulation after 3 hrs by luciferase reporter gene assay; details: Homo sapiens

| Structure (SMILES) | IC50 [1] [µM] | Activity [2] | EC50 [3] [nM] | IC50 [4] [µM] |
| --- | --- | --- | --- | --- |
| CN(CCOc1ccc(CC2SC(=O)NC2=O)cc1)c1nc2ccccc2s1 (stereo unspecified) | 20 | Non-Toxic | 57 |  |
| CN(CCOc1ccc(/C=C2\SC(=O)NC2=O)cc1)c1ccc2ccccc2c1 | 40 | Non-Toxic | 1600 |  |
| CN(CCOc1ccc(/C=C2\SC(=O)NC2=O)cc1)c1nccs1 | 42 | Non-Toxic | 700 |  |
| CCN(CCOc1ccc(CC2SC(=O)NC2=O)cc1)c1nc2ccccc2s1 (stereo unspecified) | 25 | Non-Toxic | 52 |  |
| CCN(CCOc1ccc(/C=C2\SC(=O)NC2=O)cc1)c1ccccn1 | 15 | Non-Toxic | 360 |  |
| CN(CCOc1ccc(/C=C2\SC(=O)NC2=O)cc1)c1nc2ccccc2[nH]1 | 38 | Non-Toxic | 3400 |  |
| CCN(CCOc1ccc(/C=C2\SC(=O)NC2=O)cc1)c1nc2ccccc2s1 | 17 | Non-Toxic | 820 |  |
| O=C1NC(=O)/C(=C/c2ccc(OCCNc3nc4ccccc4s3)cc2)S1 | 14 | Non-Toxic | 53 | 29 |
| CCN(CCOc1ccc(CC2SC(=O)NC2=O)cc1)c1ccccn1 (stereo unspecified) | 21 | Non-Toxic | 540 |  |
| CC(C)N(CCOc1ccc(CC2SC(=O)NC2=O)cc1)c1nc2ccccc2s1 (stereo unspecified) | 20 | Non-Toxic | 530 |  |
| CN(CCOc1ccc(/C=C2\SC(=O)NC2=O)cc1)c1nc2ccccc2s1 | 13 | Non-Toxic | 310 |  |
| CCc1ccc(CCOc2ccc(CC3SC(=O)NC3=O)cc2)nc1 (stereo unspecified) [PIOGLITAZONE] |  | Non-Toxic |  |  |
| CN(CCOc1ccc(CC2SC(=O)NC2=O)cc1)c1ccccn1 (stereo unspecified) [ROSIGLITAZONE] |  | Non-Toxic |  |  |
